Assays:
[1] = target: T1, Adenosine receptor A2b (Homo sapiens) (UniProt P29275); assay: Displacement of [3H]DPCPX from recombinant human adenosine A2B receptor expressed in HEK293 cells at 0.1 uM; format: cell-based
T1 sequence (whole entry): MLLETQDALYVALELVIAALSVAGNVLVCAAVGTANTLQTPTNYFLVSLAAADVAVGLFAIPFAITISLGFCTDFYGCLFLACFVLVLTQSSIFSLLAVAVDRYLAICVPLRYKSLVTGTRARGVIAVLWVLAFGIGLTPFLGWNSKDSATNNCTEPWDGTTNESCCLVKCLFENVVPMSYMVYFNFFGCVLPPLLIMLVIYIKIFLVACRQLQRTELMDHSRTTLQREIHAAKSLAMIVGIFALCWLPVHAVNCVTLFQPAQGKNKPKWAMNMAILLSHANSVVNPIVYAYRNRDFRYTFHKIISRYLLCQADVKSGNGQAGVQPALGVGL

[2] = target: T1, Adenosine receptor A2b (Homo sapiens); assay: Displacement of [3H]DPCPX from recombinant human adenosine A2B receptor expressed in HEK293 cells at 0.01 uM
Adenosine receptor A2a [3] = target: T2, Adenosine receptor A2a (Homo sapiens, UniProt P29274); assay: Displacement of [3H]ZM-241385 from recombinant human adenosine A2A receptor expressed in HeLa cells at 0.1 uM
Adenosine receptor A2a [4] = target: T2, Adenosine receptor A2a
Description: Binding affinity to recombinant human adenosine A2A receptor

Adenosine receptor A2b = target: T3, Adenosine receptor A2b (Homo sapiens, UniProt P29275)
T3 sequence (P29275 whole entry): T1 sequence (whole entry)
Description: Binding affinity to recombinant human adenosine A2B receptor

T2 sequence (P29274 whole entry): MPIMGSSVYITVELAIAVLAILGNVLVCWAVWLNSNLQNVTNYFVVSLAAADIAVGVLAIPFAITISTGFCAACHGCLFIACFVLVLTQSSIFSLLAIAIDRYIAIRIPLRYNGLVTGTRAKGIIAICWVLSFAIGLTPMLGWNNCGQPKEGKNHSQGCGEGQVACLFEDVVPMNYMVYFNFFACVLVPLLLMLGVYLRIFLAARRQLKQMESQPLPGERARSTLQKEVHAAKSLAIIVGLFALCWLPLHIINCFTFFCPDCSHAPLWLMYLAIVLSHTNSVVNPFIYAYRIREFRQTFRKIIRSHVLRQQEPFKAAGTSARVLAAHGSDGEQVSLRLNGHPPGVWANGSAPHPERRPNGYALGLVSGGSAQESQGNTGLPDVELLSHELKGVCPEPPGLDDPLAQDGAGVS

Row | Structure (SMILES) | inhibition [1] | inhibition [2] | inhibition (Adenosine receptor A2a [3]) | Ki (Adenosine receptor A2a [4]) | Ki (Adenosine receptor A2b)
1 | Cn1c(=O)c2[nH]c(-c3ccc(OCC(=O)NCc4ccc(Cl)cc4)cc3)cc2n(C)c1=O | 93% | 61% | 75% | 20.4 nM | 4.9 nM
2 | COc1cccc(CNC(=O)COc2ccc(-c3cc4c([nH]3)c(=O)n(C)c(=O)n4C)cc2)c1 | 61% | 15% | 11% | 331 nM | 51.3 nM
3 | CCCn1c(=O)c2[nH]c(-c3ccc(OC(C)C(=O)NCc4ccc(Cl)cc4)cc3)cc2n(CCC)c1=O (stereo not given) | 94% | 55% | 57% | 46.8 nM | 4.07 nM
4 | Cn1c(=O)c2[nH]c(-c3ccc(OCC(=O)NC4CCCC4)cc3)cc2n(C)c1=O | 57% | 20% | 8% | 692 nM | 79.4 nM
5 | CCCn1c(=O)c2[nH]c(-c3ccc(OCC(=O)Nc4ccc(Br)cc4)cc3)cc2n(CCC)c1=O | 97% | 66% | 54% | 30.9 nM | 2.19 nM
6 | CCCn1c(=O)c2[nH]c(-c3ccc(OCC(=O)Nc4ccccc4O)cc3)cc2n(CCC)c1=O | 74% | 56% | 82% | 32.4 nM | 19.1 nM
7 | CCCn1c(=O)c2[nH]c(-c3ccc(OCC(=O)Nc4ccc(OC)nc4)cc3)cc2n(CCC)c1=O | 84% | 41% | 50% | 107 nM | 10.7 nM
8 | Cn1c(=O)c2[nH]c(-c3ccc(OCC(=O)NCc4ccco4)cc3)cc2n(C)c1=O | 52% | 10% | 13% | 316 nM | 70.8 nM
9 | CCCn1c(=O)c2[nH]c(-c3ccc(OCC(=O)Nc4ccc(C)cn4)cc3)cc2n(CCC)c1=O | 85% | 40% | 29% | 275 nM | 12.6 nM
10 | COCCCn1c(=O)n(C)c(=O)c2[nH]c(-c3ccc(OCC(=O)Nc4ccccc4)cc3)cc21 | 80% | 27% | 29% | 120 nM | 13.8 nM
11 | CCCn1c(=O)c2[nH]c(-c3ccc(OCC(=O)Nc4ccc(CC#N)cc4)cc3)cc2n(CCC)c1=O | 86% | 34% | 46% | 39.8 nM | 11.2 nM
12 | CCCn1c(=O)c2[nH]c(-c3ccc(OCC(=O)Nc4ccc(C(N)=O)cc4)cc3)cc2n(CCC)c1=O | 78% | 16% | 43% | 24 nM | 25.1 nM
13 | Cn1c(=O)c2[nH]c(-c3cccc(OCC(=O)Nc4ccc(Br)cc4)c3)cc2n(C)c1=O | 73% | 15% | 45% | 67.6 nM | 44.7 nM
14 | CCCn1c(=O)c2[nH]c(-c3ccc(OC(C)(C)C(=O)Nc4ccc(F)cc4)cc3)cc2n(CCC)c1=O | 97% | 50% | 32% | 17 nM | 8.91 nM
15 | CCCn1c(=O)n(C)c(=O)c2[nH]c(-c3ccc(OCC(=O)Nc4ccccc4)cc3)cc21 | 80% | 33% | 40% | 195 nM | 21.4 nM
16 | CCCn1c(=O)c2[nH]c(-c3ccc(OCC(=O)Nc4ccccc4)cc3)cc2n(C)c1=O | 91% | 38% | 18% | 170 nM | 12.3 nM
17 | CN(Cc1ccccc1)C(=O)COc1ccc(-c2cc3c([nH]2)c(=O)n(C)c(=O)n3C)cc1 | 67% | 10% | 14% | 1020 nM | 55 nM
18 | CCCn1c(=O)c2[nH]c(-c3ccc(OCC(=O)Nc4ccc(Br)cc4)cc3)c(Cl)c2n(CCC)c1=O | 73% | 15% | 37% | 126 nM | 24.5 nM
19 | CCCn1c(=O)c2[nH]c(-c3ccc(OCC(=O)Nc4ccccc4)cc3)cc2n(CCC)c1=O | 92% | 47% | 6% | 224 nM | 9.33 nM
20 | CCCn1c(=O)c2[nH]c(-c3ccc(OCC(=O)Nc4ccc(C5=NC(C)(C)CO5)cc4)cc3)cc2n(CCC)c1=O | 67% | 11% | 25% | 91.2 nM | 34.7 nM
21 | CCCn1c(=O)c2[nH]c(-c3ccc(OCC(=O)NCc4ccc(F)cc4)cc3)c(Cl)c2n(CCC)c1=O | 25% | 8% | 44% | 49 nM | 174 nM
22 | CCCn1c(=O)c2[nH]c(-c3ccc(OCC(=O)Nc4ccc(F)cc4)cc3)c(Br)c2n(CCC)c1=O | 72% | 30% | 70% | 20 nM | 12.6 nM

The remaining compounds from weak to strong by Ki (Adenosine receptor A2a [4]), led by results:

Row | inhibition [1] | inhibition [2] | inhibition (Adenosine receptor A2a [3]) | Ki (Adenosine receptor A2a [4]) | Ki (Adenosine receptor A2b) | Structure (SMILES)
23 | 59% | 15% | 17% | 891 nM | 42.7 nM | CCN(Cc1ccccc1)C(=O)COc1ccc(-c2cc3c([nH]2)c(=O)n(C)c(=O)n3C)cc1
24 | 67% | 13% | 13% | 490 nM | 63.1 nM | CCCn1c(=O)c2[nH]c(-c3ccc(OCC(=O)Nc4ccc(C=O)cc4)cc3)cc2n(CCC)c1=O
25 | 74% | 21% | 13% | 427 nM | 12.3 nM | CCCn1c(=O)c2[nH]c(-c3ccc(OCC(=O)Nc4ccc(C(=O)NCCc5ccc(OC)cc5)cc4)cc3)cc2n(CCC)c1=O
26 | 27% | 10% | 20% | 302 nM | 148 nM | COc1cc(-c2cc3c([nH]2)c(=O)n(C)c(=O)n3C)ccc1OCC(=O)Nc1ccccc1
27 | 46% | 6% | 20% | 245 nM | 60.3 nM | CCCn1c(=O)c2[nH]c(-c3ccc(OCC(=O)Nc4cccc(F)c4)cc3)c(Cl)c2n(CCC)c1=O
28 | 74% | 30% | 20% | 214 nM | 22.4 nM | Cn1c(=O)c2[nH]c(-c3ccc(OCC(=O)NC4CCc5ccccc54)cc3)cc2n(C)c1=O (stereo not given)
29 | 99% | 57% | 30% | 132 nM | 3.16 nM | CCCn1c(=O)c2[nH]c(-c3ccc(OCC(=O)Nc4ccc(OC)nc4)cc3)cc2n(C)c1=O
30 | 57% | 6% | 30% | 100 nM | 56.2 nM | CCCn1c(=O)c2[nH]c(-c3ccc(OCC(=O)Nc4ccc(C(=O)OCC)cc4)cc3)cc2n(CCC)c1=O
31 | 95% | 78% | 38% | 89.1 nM | 3.16 nM | CCCn1c(=O)c2[nH]c(-c3ccc(OCC(=O)NCc4ccccc4)cc3)cc2n(CCC)c1=O
32 | 80% | 30% | 41% | 89.1 nM | 11 nM | CCCn1c(=O)c2[nH]c(-c3ccc(OCC(=O)Nc4cc(OC)nc(OC)n4)cc3)cc2n(CCC)c1=O
33 | 80% | 40% | 36% | 69.2 nM | 16.2 nM | CCCn1c(=O)c2[nH]c(-c3ccc(OCC(=O)Nc4ccc(-c5ccccc5)cc4)cc3)cc2n(CCC)c1=O
34 | 94% | 57% | 47% | 66.1 nM | 5.62 nM | CCCn1c(=O)c2[nH]c(-c3ccc(OCC(=O)Nc4ccc(F)cc4)cc3)cc2n(C)c1=O
35 | 70% | 23% | 40% | 63.1 nM | 13.8 nM | CCCn1c(=O)c2[nH]c(-c3ccc(OCC(=O)Nc4ccc(NC(C)=O)cc4)cc3)cc2n(CCC)c1=O
36 | 93% | 51% | 57% | 53.7 nM | 7.94 nM | CCCn1c(=O)c2[nH]c(-c3ccc(OC(C)(C)C(=O)Nc4ccccc4)cc3)cc2n(CCC)c1=O
37 | 73% | 16% | 54% | 42.7 nM | 24.5 nM | CCCn1c(=O)c2[nH]c(-c3ccc(OCC(=O)Nc4ccccc4)cc3)c(Br)c2n(CCC)c1=O
38 | 69% | 10% | 54% | 40.7 nM | 27.5 nM | CCCn1c(=O)c2[nH]c(-c3ccc(OCC(=O)Nc4ccc(F)cc4)cc3)c(Cl)c2n(CCC)c1=O
39 | 93% | 89% | 77% | 26.9 nM | 1.55 nM | CC(Oc1ccc(-c2cc3c([nH]2)c(=O)n(C)c(=O)n3C)cc1)C(=O)Nc1ccc(Br)cc1 (stereo not given)
40 | 96% | 57% | 93% | 15.5 nM | 4.68 nM | O=C(COc1ccc(-c2cc3c([nH]2)c(=O)n(CC2CC2)c(=O)n3CC2CC2)cc1)Nc1ccccc1
41 | 96% | 70% | 62% | 12 nM | 3.31 nM | CCCn1c(=O)c2[nH]c(-c3ccc(OCC(=O)Nc4ccc(F)cc4)cc3)cc2n(CCC)c1=O

Source: ChEMBL document CHEMBL1148617, “Design, synthesis, and structure-activity relationships of 1-,3-,8-, and 9-substituted-9-deazaxanthines at the human A2B adenosine receptor” (J Med Chem, 2006)
